From ChEMBL document CHEMBL1146589, “Potential cncer chemopreventive flavonoids from the stems of Tephrosia toxicaria” (J Nat Prod, 2003)

Experiments:
[1] = Inhibition of 7,12-dimethylbenz[a]anthracene-induced preneoplastic lesions in a mouse mammary gland culture at 10 ug/mL; type: functional
[2] = Inhibition of mouse Hepa-1c1c7 cells by MTT assay; type: cell-based
[3] = Chemoprevention index, ratio of IC50 for mouse Hepa-1c1c7 cells to drug level required to double NADPH:quinone reductase activity in mouse Hepa-1c1c7 cells; type: functional
tissue or blood = details: Mus musculus, Mammary gland, read-out: INH
Description: Inhibition of 7,12-dimethylbenz[a]anthracene-induced preneoplastic lesions in a mouse mammary gland culture at 1 ug/mL

## COc1cc2c(cc1OC)-c1c(oc3c4c(cc(O)c3c1=O)OC(C)(C)C=C4)CO2
[1]
  inhibition at 10 µg/mL: 19%
[2]
  IC50: > 47 µM

## COc1cc2c(cc1OC)[C@]1(O)C(=O)c3c(O)cc4c(c3O[C@@H]1CO2)C=CC(C)(C)O4
[1]
  inhibition at 10 µg/mL: 60%
[2]
  IC50: > 47 µM

## COc1cc(O)c2c(c1/C=C/C(C)=O)O[C@H](c1ccccc1)CC2=O
[1]
  inhibition at 10 µg/mL: 0%
[2]
  IC50: > 14.9 µM
[3]
  Ratio: >1.4

## COc1cc2c(cc1OC)[C@]1(O)C(=O)c3c(O)cc4c(c3O[C@@H]1CO2)C(OC)C(O)C(C)(C)O4 (stereo partly drawn)
[2]
  IC50: 9.1 µM
[3]
  Ratio: 1.4

## COc1cc(-c2cc(=O)c3c(O)cc(O)cc3o2)ccc1O [CHRYSOERIOL]
[2]
  IC50: 36 µM
[3]
  Ratio: 3.1

## O=c1c(-c2ccc(O)cc2)coc2cc(O)cc(O)c12 [GENISTEIN]
[2]
  IC50: 45.2 µM
[3]
  Ratio: 2

## O=C(/C=C/c1ccc(O)cc1)c1ccc(O)cc1O [ISOLIQUIRITIGENIN]
[1]
  inhibition at 10 µg/mL: 76%
[2]
  IC50: 36.3 µM
[3]
  Ratio: 10.1

## C[S+]([O-])CCCCN=C=S (stereo not drawn) [SULFORAPHANE]
[2]
  IC50: 11 µM
[3]
  Ratio: 25
Tissue or blood
  inhibition at 1 µg/mL: 83.7%

## C=C(C)[C@H]1Cc2c(cc(O)c3c2O[C@@H]2COc4cc(OC)c(OC)cc4[C@@H]2C3=O)O1 [SUMATROL]
[1]
  inhibition at 10 µg/mL: 49.9%
[2]
  IC50: > 47 µM

## COc1cc2c(cc1OC)[C@@H]1C(=O)c3c(O)cc4c(c3O[C@@H]1CO2)C=CC(C)(C)O4 [TOXICAROL]
[1]
  inhibition at 10 µg/mL: 80%
[2]
  IC50: > 47 µM
